Data as given in the supplement of paper PMC10307832.

Tests used:
Experiment in all cases: relative viability (nuclei count vs DMSO), 5 days (fraction); higher = more cells survive
EHT 1864 + Lapatinib = compound: C1COCCN1CC2=CC(=O)C(=CO2)OCCCCCSC3=C4C=CC(=CC4=NC=C3)C(F)(F)F [EHT 1864] + CS(=O)(=O)CCNCc1ccc(-c2ccc3ncnc(Nc4ccc(OCc5cccc(F)c5)c(Cl)c4)c3c2)o1 [Lapatinib] (partner 2 µM)
Method in brief: (§1)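 Nuclei were stained with Hoechst during a one-step fixation (final 0.05% Triton X-100, 1% formaldehyde, 1 ug/ml Hoechst) carried out 5 days after dosing, then counted on 4× images. The cells, lung cancer lines in 1536-well plates, had been dosed by pin tool the day after seeding with one drug alone or a fixed anchor-drug dose plus five library-drug doses (not always all listed) in √10 steps. Relative viability is the nuclei count in treated wells divided by that in vehicle wells, and each value is the median of duplicate plates.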

EHT 1864 + Crizotinib = compound: C1COCCN1CC2=CC(=O)C(=CO2)OCCCCCSC3=C4C=CC(=CC4=NC=C3)C(F)(F)F [EHT 1864] + C[C@@H](Oc1cc(-c2cnn(C3CCNCC3)c2)cnc1N)c1c(Cl)ccc(F)c1Cl [Crizotinib] (partner 1 µM)
Method in brief: as §1

EHT 1864 + Tozasertib = compound: C1COCCN1CC2=CC(=O)C(=CO2)OCCCCCSC3=C4C=CC(=CC4=NC=C3)C(F)(F)F [EHT 1864] + Cc1cc(Nc2cc(N3CCN(C)CC3)nc(Sc3ccc(NC(=O)C4CC4)cc3)n2)n[nH]1 [Tozasertib] (partner 0.1 µM)
Method in brief: as §1

EHT 1864 + Decitabine = compound: C1COCCN1CC2=CC(=O)C(=CO2)OCCCCCSC3=C4C=CC(=CC4=NC=C3)C(F)(F)F [EHT 1864] + Nc1ncn([C@H]2C[C@H](O)[C@@H](CO)O2)c(=O)n1 [Decitabine] (partner 2 µM)
Method in brief: as §1

| Cell Line | relative viability (EHT 1864 + Lapatinib; first compound 0.04 µM) | relative viability (EHT 1864 + Lapatinib; first compound 0.1265 µM) | relative viability (EHT 1864 + Lapatinib; first compound 0.4 µM) | relative viability (EHT 1864 + Lapatinib; first compound 1.265 µM) | relative viability (EHT 1864 + Lapatinib; first compound 4 µM) | relative viability (EHT 1864 + Crizotinib; first compound 0.04 µM) | relative viability (EHT 1864 + Crizotinib; first compound 0.1265 µM) | relative viability (EHT 1864 + Crizotinib; first compound 0.4 µM) | relative viability (EHT 1864 + Crizotinib; first compound 1.265 µM) | relative viability (EHT 1864 + Crizotinib; first compound 4 µM) | relative viability (EHT 1864 + Tozasertib; first compound 0.04 µM) | relative viability (EHT 1864 + Tozasertib; first compound 0.1265 µM) | relative viability (EHT 1864 + Tozasertib; first compound 0.4 µM) | relative viability (EHT 1864 + Tozasertib; first compound 1.265 µM) | relative viability (EHT 1864 + Tozasertib; first compound 4 µM) | relative viability (EHT 1864 + Decitabine; first compound 0.04 µM) | relative viability (EHT 1864 + Decitabine; first compound 0.1265 µM) | relative viability (EHT 1864 + Decitabine; first compound 0.4 µM) | relative viability (EHT 1864 + Decitabine; first compound 1.265 µM) | relative viability (EHT 1864 + Decitabine; first compound 4 µM) |
| --- | --- | --- | --- | --- | --- | --- | --- | --- | --- | --- | --- | --- | --- | --- | --- | --- | --- | --- | --- | --- |
| LU99A | 1.02 | 0.64 | 0.873 | 1.17 | 0.949 | 0.604 | 0.489 | 0.575 | 0.593 | 0.537 | 0.295 | 0.254 | 0.253 | 0.244 | 0.216 | 0.843 | 0.757 | 0.827 | 0.903 | 0.872 |
| LXF-289 | 0.883 | 0.821 | 0.883 | 0.851 | 0.799 | 0.802 | 0.791 | 0.752 | 0.706 | 0.688 | 0.201 | 0.144 | 0.196 | 0.209 | 0.203 | 0.431 | 0.351 | 0.388 | 0.385 | 0.361 |
| NCI-H441 |  |  |  |  |  | 0.783 | 0.591 | 0.752 | 0.879 | 0.723 | 0.55 | 0.544 | 0.596 | 0.507 | 0.481 | 0.246 |  | 0.241 | 0.234 | 0.241 |
| NCI-H1299 | 0.969 | 0.904 | 0.949 | 0.931 | 0.909 | 0.928 | 0.975 | 0.95 | 0.925 | 0.901 |  |  |  |  |  |  |  |  |  |  |
| NCI-H1395 | 1.04 | 0.877 | 1.05 | 1.01 | 0.861 |  |  |  |  |  | 0.831 | 0.65 | 0.772 | 0.719 | 0.723 | 0.722 | 0.676 | 0.709 | 0.657 | 0.673 |
| NCI-H1563 | 1.01 | 0.986 | 0.953 | 0.949 | 0.813 | 0.89 | 0.883 | 0.916 | 0.827 | 0.656 |  |  |  |  |  |  |  |  |  |  |
| NCI-H1648 |  |  |  |  |  |  |  |  |  |  | 0.486 | 0.376 | 0.396 | 0.411 | 0.441 | 0.564 |  | 0.471 | 0.502 | 0.643 |
| NCI-H1703 | 0.796 | 0.857 | 1.21 | 1.01 | 0.854 | 0.69 | 0.534 | 0.545 | 0.598 | 0.487 |  |  |  |  |  |  |  |  |  |  |
| NCI-H1792 | 0.864 | 0.777 | 0.926 | 0.882 | 0.928 | 0.982 | 0.852 | 0.972 | 0.895 | 1.04 |  |  |  |  |  | 0.506 |  | 0.515 | 0.567 | 0.601 |
| NCI-H1793 |  | 0.543 | 0.667 | 0.602 | 0.638 |  |  |  |  |  | 0.294 |  | 0.341 |  | 0.285 | 0.47 | 0.466 | 0.506 | 0.56 | 0.614 |
| NCI-H2228 | 1.08 | 0.68 | 1.03 | 1.13 | 1.02 | 0.523 | 0.479 | 0.509 | 0.341 | 0.361 | 0.335 | 0.332 | 0.209 | 0.204 | 0.16 |  |  |  |  |  |
| NCI-H2342 |  |  |  |  |  |  |  |  |  |  | 0.541 | 0.394 | 0.452 | 0.491 | 0.533 | 0.712 | 0.562 | 0.787 | 0.751 | 0.763 |
